Test results reported in patent publication US10806743B1, “Method of administering lactitol to reduce plasma concentration of lactitol” (Braintree Laboratories, Inc., priority 2017, dated 2020).

Columns and labels:
[1] = chronic idiopathic constipation; cited from earlier work
calcium absorption = conditions: rats, diet containing 5% lactitol, two weeks; cited from earlier work
[2] = estimated; cited from earlier work
[3] = Fed v. fasted administration of lactitol: plasma lactitol pharmacokinetics (LC-MS/MS); type: in vivo, human
Method: A study was performed to determine the effects of food on absorption of lactitol. Sixteen subjects (8 males and 8 females) were randomized to either Sequence A (fed/fasted) and the other half to Sequence B (fasted/fed) on Day 1 prior to dosing. Subjects returned for Day 8 dosing, 7 days following dose at Day 1, to receive study drug following the opposite food sequence, have pharmacokinetic samples collected and safety procedures performed. A standard dinner was served approximately 6 hours following dose on Day 1 or Day 8. A nighttime snack was permitted, and a standard breakfast and lunch were served prior to discharge from the clinic.
No food was allowed prior to dosing; water was consumed up to one hour before dosing and then only after one hour after dosing. Subjects assigned to Sequence A (fed/fasted) received a high-calorie and high-fat meal for lunch at 11:30 AM, as described in Table 1. Subjects receiving the high fat high calorie lunch completed the meal within 30 minutes. Dose was administered 30 minutes after the start of the meal. Subjects assigned to Sequence B (fasted/fed) continued to fast prior to dose. The staff mixed the contents of two (2) packets (approximately 21 g) with 8 oz of water. Subjects consumed the dose over 5 to 10 minutes.
Doses were administered 30 minutes after the start of the meal. Subjects assigned to Sequence B (fasted/fed) continued to fast prior to dose. The CRU mixed the contents of two (2) packets (approximately 21 g) with 8 oz of water. Subjects consumed the dose over 5 to 10 minutes.
A high-fat (approximately 50 percent of total caloric content of the meal) and high-calorie (approximately 800 to 1000 calories) meal was used. Blood samples were collected prior to dosing and at 10, 20, 30 and 60 minutes (within +/−3 minutes) and then at 2, 4, 6, 8, 10, 12, 16, 18, 20 and 24 hours (within +/−30 minutes) following dose.
An LC-MS/MS method for the determination of lactitol concentrations in human plasma has been successfully developed and validated. The calibration range of the method is 25.0 to 10,000 ng/ml for lactitol using a 50 μl sample aliquot.

[4] = Adverse events in Phase 3 constipation studies; type: in vivo, human; conditions: Phase 3 studies, doses required for effective treatment of constipation
From the text: An Adverse Event (AE) is any untoward medical occurrence associated with the use of a drug in humans, whether or not considered drug related. An AE can therefore be any unfavorable and unintended sign (including a clinically significant abnormal laboratory finding), symptom, or disease temporally associated with the use of a medicinal (investigational) product.
These adverse reactions were transient and subsided rapidly upon dose adjustment or cessation.

plasma glucose = conditions: 25 grams, eight healthy male volunteers; cited from earlier work

SMILES | incidence of most common adverse reactions (nausea, diarrhea, headache, abdominal pain, abdominal distention, flatulence) [1] | calcium absorption (calcium absorption) | fraction of an oral dose excreted in urine [2] | % CV values for λz and λ1/2, fasted v. fed ([3]; fasted and fed conditions) | time of peak plasma concentration ([3]; fasted population) | peak plasma concentration of lactitol ([3]; fasted population, approx. 21 g oral dose) | average plasma concentration of lactitol ([3]; fasted population, hour 1, approx. 21 g oral dose) | plasma concentration of lactitol ([3]; fasted population, hour 8) | plasma concentration of lactitol ([3]; fasted population, hour 12 post-dose) | plasma concentration of lactitol remained above ([3]; fasted population, until hour 8) | time of peak plasma concentration ([3]; fed population) | peak plasma concentration of lactitol ([3]; fed population (dose 30 minutes after start of high-fat, high-calorie meal)) | plasma concentration of lactitol ([3]; fed population, hour 8) | plasma concentration of lactitol ([3]; fed population, hour 12 post-dose) | AUC, fed population smaller than fasted population ([3]; fed v. fasted) | peak concentration, fed compared with fasted population ([3]; fed v. fasted) | adverse events associated with administration [4] | rise in plasma glucose after ingestion (plasma glucose)
CCCCC(F)(F)[C@@]1(O)CC[C@H]2[C@@H](CC(=O)[C@@H]2CCCCCCC(=O)O)O1 [Lubiprostone] | > 4% |  |  |  |  |  |  |  |  |  |  |  |  |  |  |  |  | 
OC[C@@H](O)[C@@H](O[C@@H]1O[C@H](CO)[C@H](O)[C@H](O)[C@H]1O)[C@H](O)[C@@H](O)CO [lactitol] |  | significant increase | 0.6% | similar | 4 h | 2412 ng/mL | 1193 ng/mL | 935 ng/mL | 218 ng/mL | above 1000 ng/mL | 4 h | 738.25 ng/mL | 387.93 ng/mL | 124.16 ng/mL | 10 times | more than three times smaller | flatulence, nausea, vomiting, abdominal cramping or pain and bloating | no rise in plasma glucose
